Assay results taken from EP0380084A2, “Method for the inhibition of cell-cell and cell substratum interactions by the blocking of carbohydrate-carbohydrate interactions” (The Biomembrane Institute, priority 1989, dated 1990).
“Also recorded” adds a separate entry of the source.

Columns and labels:
Le^x liposomes = experiment: Self-aggregation of Le^x liposomes; type: binding
Protocol: A representative example of a carbohydrate-carbohydrate interaction is the recognition of Le^x(Galβ1 → 4[Fucα1 → 3]GlcNacβ1 → R) by Le^x per se. Le^x pentaosyl glycolipid (III³FucnLc₄) was prepared from human colonic adenocarcinoma. Within the present invention, Le^x is shown to be the structure recognizing Le^x. […] Fourth, the diffusability of tritium-labeled LFP III (from the lower to the upper Boyden chamber through a semipermeable membrane) was inhibited by Le^x liposomes. In addition, the Le^x-Le^x interaction was highly dependent on bivalent cations (Ca²⁺, Mg²⁺) and was inhibited by EDTA.

Le^x glycolipid = experiment: Interaction of Le^x liposomes with Le^x glycolipid coated on a plastic surface; type: binding
Protocol: A representative example of a carbohydrate-carbohydrate interaction is the recognition of Le^x(Galβ1 → 4[Fucα1 → 3]GlcNacβ1 → R) by Le^x per se. Le^x pentaosyl glycolipid (III³FucnLc₄) was prepared from human colonic adenocarcinoma.

[1] = system: mouse teratocarcinoma F9 cells; experiment: F9 cell aggregation assay (microscopy and Coulter Counter count of single cells); type: cell-based; settings: for numbers of free (i.e., nonaggregated) cells: Coulter Counter, semiquantitative (Figure 1, panel e), 2 mM LFP II or LFP III; for self-aggregation of F9 cells: PBS with Ca2+ and Mg2+, 50 mM EDTA, 2 mM LFP II, 2 mM LFP III (Figure 1, panels a-d)
Protocol: More specifically, mouse teratocarcinoma F9 cells (Bernstine et al., Proc. Natl. Acad. Sci. USA 70:3899-3903, 1973) were grown on gelatin-coated plates in Dulbecco's modified Eagle's medium (DME) containing 4.5 g/l glucose and supplemented with 10% fetal calf serum (FCS) (v/v). The plates were prepared by incubating 0.01% gelatin in water for 30 min.
F9 cells grown to confluency on gelatin-coated plates were harvested using standard trypsin/EDTA solution and washed in DME containing 10% FCS. Next, the cells were carefully resuspended in a PBS solution (containing 0.9 mM Ca²⁺, 0.5 mM Mg²⁺ and 0.1 mM Mn²⁺) and supplemented with 0.1% FCS. The cell samples were mixed carefully before pipetting, and both manual counting and counting with a Coulter Counter (Model ZBI, Coulter Electronics Inc., Hialeah, Fla.) were performed. Adjustments of the aperture on the Coulter Counter were made in order to correlate with the manual counting of the single cells, excluding aggregated cells. For aggregation assays, cells were adjusted to a concentration of about 2.6 x 10⁷/ml. After 1 hr at 37°C, 50 µl aliquots were mixed with 50 µl of ethylenediaminetetraacetic acid (EDTA), LFP II, or LFP III solutions, and cells were incubated for an additional 15 min at 37°C. […] Before measurements on the Coulter Counter, the 100 µl volume sample was diluted to 10 ml and mixed carefully. In experiments were photomicrographs of cells were taken, approximately 0.8 x 10⁶ cells were placed in different PBS solutions (final volume 100 µl) in small Petri dishes. The cell suspension was then covered by mineral oil and incubated at 37°C for 30-60 min, and the process of cell aggregation was observed under the microscope.
The degree of F9 cell aggregation was semiquantitatively expressed by numbers of free (i.e., nonaggregated) cells (panel e), as determined by Coulter Counter with an appropriate aperture setting.

[2] = system: mouse T cell lymphoma L5178 AA12 cell line (high expressor of Gg3) to mouse B16 melanoma cell line (high expressor of GM₃); experiment: Adhesion of 3H-labeled L5178 AA12 lymphoma cells to B16 melanoma cell layer; type: cell-based; settings: 10 mM EDTA, 5 mM sialyllactose, DH2 2 µg/ml, 2D4 5 µg/ml; 3H remaining after washing (Figure 2, panel c)
Protocol: Mouse B16 melanoma cells (which express a high level of GM₃) were purchased from American Type Culture Collection (Rockville, MD).
B16 cells (5x10⁴/ml), highly expressing GM₃, were grown on 24-well plates (Falcon, Oxnard, CA) for 24 hrs in DME. The majority of adherent cells were washed with serum-free medium. AA12 cells (Gg3 expressors) or AV27 cells (Gg3 non-expressors) were grown in DME containing 2% FCS, 1 g/l glucose, and 50 µCi ³H-GlcNH₂ for 24 hrs. The labeled AA12 (71,000 cpm/10⁵ cells) and AV27 (33,000 cpm/10⁵ cells) were then collected by centrifugation, suspended in DME containing 2% FCS and 1 g/l glucose, and the cell population adjusted to 6x10⁵/ml. This suspension (1 ml) was added to each well of a Falcon plate on which B16 melanoma cells were grown as adherent culture. The incubated plates were then washed 2x with serum-free fresh medium. L5178 lymphoma cells not adhering to B16 cells were washed out. The remaining cells in each plate were trypsinized, collected, and counted.
B16 melanoma cells grown in 24-well plates and L5178 lymphoma cells were treated respectively with DH2 solution (2 µg/ml) and 2D4 solution (5 µg/ml), left for 30 min at room temperature, washed with serum-­free fresh DME, and incubated with lymphoma cell suspension and melanoma cell layer for 5 hrs.

Gg3/GM₃ interaction = settings: antibody: pretreatment of the Gg3-coated solid phase
[3] = system: mouse T cell lymphoma L5178 AV27 cell line to B16 cells; settings: 10 mM EDTA; 3H remaining after washing (Figure 2, panel c)
Protocol: Mouse B16 melanoma cells (which express a high level of GM₃) were purchased from American Type Culture Collection (Rockville, MD). Expression of GM₃ by B16 cells was defined by MAb DH2 (Dohi et al., Cancer Res. 48:5680-5685, 1988). Mouse T cell lymphoma line L5178 AA12 (which express a high level of Gg3, defined by MAb 2D4; Young et al., J. Exp. Med. 150:1008-1019, 1979) was cloned from 1C1 (Young et al., J. Immunol. 126:1-6, 1981). […] All cells were grown in RPMI 1640 containing 10% FCS.
B16 cells (5x10⁴/ml), highly expressing GM₃, were grown on 24-well plates (Falcon, Oxnard, CA) for 24 hrs in DME. The majority of adherent cells were washed with serum-free medium. AA12 cells (Gg3 expressors) or AV27 cells (Gg3 non-expressors) were grown in DME containing 2% FCS, 1 g/l glucose, and 50 µCi ³H-GlcNH₂ for 24 hrs. The labeled AA12 (71,000 cpm/10⁵ cells) and AV27 (33,000 cpm/10⁵ cells) were then collected by centrifugation, suspended in DME containing 2% FCS and 1 g/l glucose, and the cell population adjusted to 6x10⁵/ml. This suspension (1 ml) was added to each well of a Falcon plate on which B16 melanoma cells were grown as adherent culture. The incubated plates were then washed 2x with serum-free fresh medium. L5178 lymphoma cells not adhering to B16 cells were washed out. The remaining cells in each plate were trypsinized, collected, and counted. […]

Molecule | self-aggregation of Le^x liposomes (Le^x liposomes) | interaction of Le^x liposomes with immobilized Le^x glycolipid (Le^x glycolipid) | numbers of free (i.e., nonaggregated) cells [1] | self-aggregation of F9 cells [1] | Adhesion of AA12 cells on B16 melanoma [2] | Le^x-Le^x interaction (Le^x glycolipid; dependent on bivalent cations (Ca2+, Mg2+)) | interaction of Gg3-coated solid phase with GM₃-containing liposomes (Gg3/GM₃ interaction) | Adhesion of AV27 cells to B16 cells [3]
CC(=O)NC1C(OC2C(O)C(CO)OC(OC3C(CO)OC(O)C(O)C3O)C2O)OC(CO)C(OC2OC(CO)C(O)C(O)C2O)C1OC1OC(C)C(O)C(O)C1O (stereo not drawn) [LFP III] | specifically inhibited | specifically inhibited | increased greatly | aggregation was inhibited | – | – | – | –
O=C(O)CN(CCN(CC(=O)O)CC(=O)O)CC(=O)O [EDTA, ethylenediaminetetraacetic acid] | – | – | – | aggregation did not occur; also recorded: inhibited | greatly suppressed | inhibited | inhibited | greatly suppressed
CC(=O)N[C@H]1[C@H](O[C@H]2[C@@H](O)[C@@H](CO)O[C@@H](O[C@H]3[C@H](O)[C@@H](O)C(O)O[C@@H]3CO)[C@@H]2O)O[C@H](CO)[C@@H](O[C@@H]2O[C@@H](C)[C@@H](O)[C@@H](O)[C@@H]2O)[C@@H]1O[C@@H]1O[C@H](CO)[C@H](O)[C@H](O)[C@H]1O (stereo partly drawn) [LFP II] | – | – | much less | aggregation of F9 cells; also recorded: not by LFP II | – | – | – | –
sialyllactose | – | – | – | – | markedly inhibited | – | – | –
